Assay results: PubChem BioAssay (NCI)
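Results reflect a 48-hour exposure of cells in 96-well plates to compound at five concentrations. Abbreviation: GI50, concentration required for 50% inhibition of growth. TGI: total growth inhibition.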

Assays:
Test in all cases: inhibition of tumour cell growth, NCI panel, 48 h
HL-60(TB) leukemia = test system: HL-60(TB) leukemia
HS 578T breast = test system: HS 578T breast
MALME-3M melanoma = test system: MALME-3M melanoma
MCF7 breast = test system: MCF7 breast
MDA-MB-435 = test system: MDA-MB-435
SNB-19 CNS = test system: SNB-19 CNS
U251 CNS = test system: U251 CNS
CAKI-1 renal = test system: CAKI-1 renal
COLO 205 colon = test system: COLO 205 colon
IGROV1 ovarian = test system: IGROV1 ovarian
PC-3 prostate = test system: PC-3 prostate

## CCC(=O)NC(OCC1(CC)COC1)(C(F)(F)F)C(F)(F)F
HL-60(TB) leukemia
  TGI: > 100 µM
HS 578T breast
  TGI: > 100 µM
MALME-3M melanoma
  TGI: > 100 µM
MCF7 breast
  TGI: > 100 µM
MDA-MB-435
  TGI: > 100 µM
SNB-19 CNS
  TGI: > 100 µM
U251 CNS
  TGI: > 100 µM

## CCN1CCCC(Nc2cc(C)nc(/N=C(/N)Nc3ccc(Cl)c(Cl)c3)n2)C1 (stereo not given)
CAKI-1 renal
  TGI: 3.1 µM
COLO 205 colon
  TGI: 2.95 µM
HL-60(TB) leukemia
  TGI: 1.33 µM
IGROV1 ovarian
  TGI: 3.06 µM
MALME-3M melanoma
  TGI: 4.02 µM
MCF7 breast
  TGI: 3.59 µM
MDA-MB-435
  TGI: 2.89 µM
SNB-19 CNS
  TGI: 5.59 µM
U251 CNS
  TGI: 2.6 µM

## Oc1ccc(Cl)cc1C1=N/C(=N\C/N=C2\N=C(c3cc(Cl)ccc3O)CC(c3ccccc3)N2)NC(c2ccccc2)C1 (stereo not given)
CAKI-1 renal
  TGI: > 100 µM
COLO 205 colon
  TGI: > 100 µM
HL-60(TB) leukemia
  TGI: > 100 µM
IGROV1 ovarian
  TGI: > 100 µM
MCF7 breast
  TGI: > 100 µM
MDA-MB-435
  TGI: > 100 µM
PC-3 prostate
  TGI: > 100 µM
SNB-19 CNS
  TGI: > 100 µM
U251 CNS
  TGI: > 100 µM

## Cc1ccc(SC[C@@]2(C(F)F)NC(=O)NC2=O)cc1
CAKI-1 renal
  TGI: > 100 µM
COLO 205 colon
  TGI: > 100 µM
HL-60(TB) leukemia
  TGI: > 100 µM
HS 578T breast
  TGI: > 100 µM
IGROV1 ovarian
  TGI: > 100 µM
MALME-3M melanoma
  TGI: > 100 µM
MDA-MB-435
  TGI: > 100 µM
PC-3 prostate
  TGI: > 100 µM
SNB-19 CNS
  TGI: > 100 µM
U251 CNS
  TGI: > 100 µM

## C[C@@H]1CC[C@@H](C)[C@](C)(CCc2ccoc2)C/C=C\C=C/1C(=O)O
CAKI-1 renal
  TGI: > 50 µM
COLO 205 colon
  TGI: > 50 µM
HL-60(TB) leukemia
  TGI: > 50 µM
HS 578T breast
  TGI: > 50 µM
IGROV1 ovarian
  TGI: > 50 µM
MALME-3M melanoma
  TGI: > 50 µM
MCF7 breast
  TGI: > 50 µM
PC-3 prostate
  TGI: > 50 µM
SNB-19 CNS
  TGI: > 50 µM
U251 CNS
  TGI: > 50 µM

## Cc1ccnc(NC(=S)Nc2cccc(Cl)c2)c1
CAKI-1 renal
  TGI: > 100 µM
COLO 205 colon
  TGI: > 100 µM
HL-60(TB) leukemia
  TGI: > 100 µM
HS 578T breast
  TGI: > 100 µM
IGROV1 ovarian
  TGI: > 100 µM
MCF7 breast
  TGI: > 100 µM
MDA-MB-435
  TGI: > 100 µM
PC-3 prostate
  TGI: > 100 µM
SNB-19 CNS
  TGI: > 100 µM
U251 CNS
  TGI: > 100 µM

## COc1cccc(NC(=O)CC(=O)NNCC(=O)Nc2nnc(-c3ccc(N(CCC#N)S(=O)(=O)c4ccccc4)cc3)s2)c1
CAKI-1 renal
  TGI: > 100 µM
COLO 205 colon
  TGI: > 100 µM
IGROV1 ovarian
  TGI: > 100 µM
MALME-3M melanoma
  TGI: > 100 µM
SNB-19 CNS
  TGI: > 100 µM
U251 CNS
  TGI: > 100 µM

## CSc1nc(C#N)c(N)n1C
CAKI-1 renal
  TGI: > 100 µM
COLO 205 colon
  TGI: > 100 µM
HL-60(TB) leukemia
  TGI: > 100 µM
HS 578T breast
  TGI: > 100 µM
IGROV1 ovarian
  TGI: > 100 µM
MALME-3M melanoma
  TGI: > 100 µM
MDA-MB-435
  TGI: > 100 µM
PC-3 prostate
  TGI: > 100 µM
SNB-19 CNS
  TGI: > 100 µM
U251 CNS
  TGI: > 100 µM

## CN(C)C(=O)C(F)(F)C(c1ccc(Br)cc1)C1C(=O)N(C)C(=O)N(C)C1=O (stereo not given)
CAKI-1 renal
  TGI: > 100 µM
COLO 205 colon
  TGI: > 100 µM
MCF7 breast
  TGI: > 100 µM
MDA-MB-435
  TGI: > 100 µM
PC-3 prostate
  TGI: > 100 µM
SNB-19 CNS
  TGI: > 100 µM
U251 CNS
  TGI: > 100 µM

## CC(=O)c1ccc(N2CCN(C3=CC(=O)c4c(O)ccc(O)c4C3=O)CC2)cc1
CAKI-1 renal
  TGI: > 100 µM
COLO 205 colon
  TGI: > 100 µM
HL-60(TB) leukemia
  TGI: 38.6 µM
IGROV1 ovarian
  TGI: > 100 µM
MALME-3M melanoma
  TGI: > 100 µM
MCF7 breast
  TGI: > 100 µM
PC-3 prostate
  TGI: > 100 µM
SNB-19 CNS
  TGI: > 100 µM
U251 CNS
  TGI: 50.3 µM

## Clc1nc(Nc2nc3ccccc3[nH]2)nc(Cl)c1Cc1ccccc1
CAKI-1 renal
  TGI: > 100 µM
COLO 205 colon
  TGI: > 100 µM
HL-60(TB) leukemia
  TGI: > 100 µM
HS 578T breast
  TGI: > 100 µM
IGROV1 ovarian
  TGI: > 100 µM
MALME-3M melanoma
  TGI: > 100 µM
MDA-MB-435
  TGI: > 100 µM
PC-3 prostate
  TGI: > 100 µM
SNB-19 CNS
  TGI: > 100 µM
U251 CNS
  TGI: > 100 µM

## CN1Cc2c(nc(-c3ccc(Br)cc3)c[n+]2[O-])N(C)C1
CAKI-1 renal
  TGI: > 100 µM
COLO 205 colon
  TGI: > 100 µM
HL-60(TB) leukemia
  TGI: > 100 µM
IGROV1 ovarian
  TGI: > 100 µM
MALME-3M melanoma
  TGI: > 100 µM
SNB-19 CNS
  TGI: > 100 µM
U251 CNS
  TGI: > 100 µM

## Nc1ccc(-c2nc3ccc(F)cc3s2)cc1
CAKI-1 renal
  TGI: 95.5 µM
COLO 205 colon
  TGI: 33.2 µM
HS 578T breast
  TGI: > 100 µM
IGROV1 ovarian
  GI50: 21.3 µM
  TGI: 71.9 µM
MALME-3M melanoma
  TGI: > 100 µM
MDA-MB-435
  TGI: 70.4 µM
PC-3 prostate
  TGI: 92.6 µM
SNB-19 CNS
  TGI: > 100 µM
U251 CNS
  TGI: > 100 µM

## Cc1nn(C)c2nc3ccc(Cl)cc3c(-c3ccccc3)c12
CAKI-1 renal
  TGI: > 100 µM
COLO 205 colon
  TGI: > 100 µM
HL-60(TB) leukemia
  TGI: > 100 µM
MALME-3M melanoma
  TGI: > 100 µM
MCF7 breast
  TGI: > 100 µM
MDA-MB-435
  TGI: > 100 µM
PC-3 prostate
  TGI: > 100 µM
SNB-19 CNS
  TGI: > 100 µM
U251 CNS
  TGI: > 100 µM

## Cc1c(C#N)c2nnn(-c3ccccc3)c(=O)n2c1-c1ccccc1
CAKI-1 renal
  TGI: > 100 µM
COLO 205 colon
  TGI: 3.41 µM
HS 578T breast
  TGI: > 100 µM
IGROV1 ovarian
  TGI: > 100 µM
MALME-3M melanoma
  TGI: > 100 µM
MCF7 breast
  TGI: > 66.6 µM
PC-3 prostate
  TGI: > 100 µM
SNB-19 CNS
  TGI: > 100 µM
U251 CNS
  TGI: > 100 µM

## COc1cc(OC)cc(-n2c(N)c(-c3nc4ccccc4n3C)c3ccc([N+](=O)[O-])cc3c2=O)c1
CAKI-1 renal
  TGI: > 100 µM
COLO 205 colon
  TGI: > 100 µM
HS 578T breast
  TGI: 83.3 µM
MDA-MB-435
  TGI: > 100 µM
PC-3 prostate
  TGI: > 100 µM
SNB-19 CNS
  TGI: > 100 µM
U251 CNS
  TGI: > 100 µM

## COC(=O)C1=C(C)N(NC(=O)c2ccccc2)C2(O)CCCC(=O)C12C (stereo not given)
CAKI-1 renal
  TGI: > 100 µM
COLO 205 colon
  TGI: > 100 µM
IGROV1 ovarian
  TGI: > 100 µM
MALME-3M melanoma
  TGI: > 100 µM
SNB-19 CNS
  TGI: > 100 µM
U251 CNS
  TGI: > 100 µM

## CC(=O)CC(C)(C)NC(=O)[C@@]1(O)CC[C@H]2[C@@H]3CCC4=CC(=O)CC[C@@H]4[C@H]3CC[C@@]21C
COLO 205 colon
  TGI: > 100 µM
HL-60(TB) leukemia
  TGI: > 100 µM
HS 578T breast
  TGI: > 100 µM
IGROV1 ovarian
  TGI: > 100 µM
MALME-3M melanoma
  TGI: > 100 µM
MDA-MB-435
  TGI: > 100 µM
PC-3 prostate
  TGI: > 100 µM
SNB-19 CNS
  TGI: > 100 µM
U251 CNS
  TGI: > 100 µM

## CN(/N=N/c1nc[nH]c1C(N)=O)C1CCCCC1
COLO 205 colon
  TGI: > 100 µM
HL-60(TB) leukemia
  TGI: > 100 µM
IGROV1 ovarian
  TGI: > 100 µM
MALME-3M melanoma
  TGI: > 100 µM
SNB-19 CNS
  TGI: > 100 µM
U251 CNS
  TGI: > 100 µM
